Test results taken from ChEMBL document CHEMBL1201862, “PubChem BioAssay data set” (2004).
The source made the active and inactive calls.

These compounds were tested against T1, Serine/threonine-protein kinase D3 (Homo sapiens, UniProt O94806).
T1 sequence (O94806 whole entry): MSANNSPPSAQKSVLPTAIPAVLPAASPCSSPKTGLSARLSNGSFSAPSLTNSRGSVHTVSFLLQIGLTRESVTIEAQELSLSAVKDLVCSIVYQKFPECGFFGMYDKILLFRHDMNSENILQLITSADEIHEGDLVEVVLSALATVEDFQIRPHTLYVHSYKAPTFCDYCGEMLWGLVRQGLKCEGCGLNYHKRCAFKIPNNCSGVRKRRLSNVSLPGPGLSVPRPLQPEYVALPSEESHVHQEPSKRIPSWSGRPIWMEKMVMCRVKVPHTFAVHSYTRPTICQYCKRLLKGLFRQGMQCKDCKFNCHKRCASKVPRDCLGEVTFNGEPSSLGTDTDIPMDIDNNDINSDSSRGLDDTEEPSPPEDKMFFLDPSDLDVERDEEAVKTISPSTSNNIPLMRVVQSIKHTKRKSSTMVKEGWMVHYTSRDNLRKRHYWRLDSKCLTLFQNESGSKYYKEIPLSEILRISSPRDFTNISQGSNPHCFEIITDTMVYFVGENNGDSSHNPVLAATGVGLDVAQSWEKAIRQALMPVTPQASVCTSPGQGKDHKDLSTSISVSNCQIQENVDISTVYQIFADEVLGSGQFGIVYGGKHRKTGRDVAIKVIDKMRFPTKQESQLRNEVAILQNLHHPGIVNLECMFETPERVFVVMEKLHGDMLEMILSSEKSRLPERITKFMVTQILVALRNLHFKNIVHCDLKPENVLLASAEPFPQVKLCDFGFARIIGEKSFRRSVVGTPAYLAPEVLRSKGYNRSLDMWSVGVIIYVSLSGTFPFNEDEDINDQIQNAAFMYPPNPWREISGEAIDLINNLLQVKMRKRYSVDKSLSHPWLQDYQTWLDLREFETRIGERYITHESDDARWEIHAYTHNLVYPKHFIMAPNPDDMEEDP
Assay type: functional
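Wherever IC50 is given: Luminescence-based dose-response confirmation of ultra-high-throughput screening hits, measuring inhibition of SENP7.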

For NC(COc1cncc(-c2ccc3c(c2)C(=Cc2ccc[nH]2)C(=O)N3)c1)Cc1ccccc1 (stereo not given), which Ki is on record?
Its Ki is 0.0158 µM (active).

For O=C1Cc2cc(-c3ccccc3)cnc2N1, which Ki is on record?
The Ki was 63.1 µM (active).

With O=C1Nc2cc(-c3ccc(O)cc3)ccc2C1=Cc1ccc[nH]1 as the compound, how does the Ki read?
The Ki was > 3.98 µM (inactive).

The compounds below were run against T2, Sentrin-specific protease 7 (Homo sapiens, UniProt Q9BQF6).
T2 sequence (Q9BQF6 whole entry): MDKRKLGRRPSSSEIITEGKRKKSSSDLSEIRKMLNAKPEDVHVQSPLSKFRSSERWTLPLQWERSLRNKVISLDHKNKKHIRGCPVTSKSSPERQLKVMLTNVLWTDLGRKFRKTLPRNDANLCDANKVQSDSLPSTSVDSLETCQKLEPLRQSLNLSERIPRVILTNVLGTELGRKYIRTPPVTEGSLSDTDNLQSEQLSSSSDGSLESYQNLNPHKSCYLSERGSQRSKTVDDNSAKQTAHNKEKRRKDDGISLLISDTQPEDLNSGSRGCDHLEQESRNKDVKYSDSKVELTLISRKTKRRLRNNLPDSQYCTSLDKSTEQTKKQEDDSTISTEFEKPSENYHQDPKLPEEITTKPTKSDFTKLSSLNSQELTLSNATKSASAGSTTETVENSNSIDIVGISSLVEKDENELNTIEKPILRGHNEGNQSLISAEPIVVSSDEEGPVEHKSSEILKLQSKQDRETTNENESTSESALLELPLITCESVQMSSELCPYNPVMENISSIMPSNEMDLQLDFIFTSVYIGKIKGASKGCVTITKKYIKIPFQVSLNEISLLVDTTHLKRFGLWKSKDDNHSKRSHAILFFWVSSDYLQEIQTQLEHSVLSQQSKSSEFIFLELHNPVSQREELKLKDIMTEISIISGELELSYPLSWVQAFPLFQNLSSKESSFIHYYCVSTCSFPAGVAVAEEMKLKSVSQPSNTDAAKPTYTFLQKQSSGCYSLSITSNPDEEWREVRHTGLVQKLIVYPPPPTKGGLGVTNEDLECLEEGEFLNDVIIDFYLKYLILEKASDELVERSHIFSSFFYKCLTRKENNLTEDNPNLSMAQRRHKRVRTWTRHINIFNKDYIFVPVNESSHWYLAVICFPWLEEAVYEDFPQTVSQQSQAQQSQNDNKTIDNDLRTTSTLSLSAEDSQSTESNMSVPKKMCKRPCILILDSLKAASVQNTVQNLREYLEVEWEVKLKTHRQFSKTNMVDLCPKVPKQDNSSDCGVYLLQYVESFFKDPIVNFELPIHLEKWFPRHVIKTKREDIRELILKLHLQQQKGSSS
Assay type: functional

For O=C(NC1=C(Nc2ccc(F)cc2)C(=O)c2ccccc2C1=O)c1ccc(Cl)cc1, which IC50 is on record?
Its IC50 is 24.3 µM (active).

CN(C)c1cc(N/N=C\c2ccccc2)nc(N(C)C)n1 was tested. Which IC50 did it give?
Its IC50 is 77.6 µM (active).

Oc1nc(Nc2ccc(F)cc2)cc2ccccc12 was tested. Which IC50 did it give?
Its IC50 is 7.05 µM (active).

The compounds below were run against T3, Serine/threonine-protein kinase Nek2 (Homo sapiens, UniProt P51955).
T3 sequence (P51955 whole entry): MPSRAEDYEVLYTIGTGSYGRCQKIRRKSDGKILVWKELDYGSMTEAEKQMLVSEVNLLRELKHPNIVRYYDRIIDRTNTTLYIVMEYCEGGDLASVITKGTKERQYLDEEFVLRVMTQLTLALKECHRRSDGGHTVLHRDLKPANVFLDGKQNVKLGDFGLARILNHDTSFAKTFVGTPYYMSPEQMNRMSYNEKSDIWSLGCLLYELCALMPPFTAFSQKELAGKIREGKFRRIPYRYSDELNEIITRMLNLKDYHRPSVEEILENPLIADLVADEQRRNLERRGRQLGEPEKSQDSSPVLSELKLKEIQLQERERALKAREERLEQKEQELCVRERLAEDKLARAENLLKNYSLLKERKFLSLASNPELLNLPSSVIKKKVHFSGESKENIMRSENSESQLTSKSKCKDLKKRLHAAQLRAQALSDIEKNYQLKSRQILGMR
Assay type: functional

How did the Ki turn out when NC(COc1cncc(-c2ccc3c(c2)C(=Cc2ccc[nH]2)C(=O)N3)c1)Cc1ccccc1 (stereo not given) was run?
The Ki was 1.26 µM (active).

With O=C1Cc2cc(-c3ccccc3)cnc2N1 as the compound, how does the Ki read?
Its Ki is 39.8 µM (active).

Which Ki does the source give for O=C1Nc2cc(-c3ccc(O)cc3)ccc2C1=Cc1ccc[nH]1 here?
The Ki was > 3.16 µM (inactive).

These compounds were tested against Protein kinase C theta type (Homo sapiens, UniProt Q04759) (assay: Navigating the Kinome. Panel member name: PRKCQ).
Assay type: functional

Sequence of Protein kinase C theta type (Q04759 whole entry): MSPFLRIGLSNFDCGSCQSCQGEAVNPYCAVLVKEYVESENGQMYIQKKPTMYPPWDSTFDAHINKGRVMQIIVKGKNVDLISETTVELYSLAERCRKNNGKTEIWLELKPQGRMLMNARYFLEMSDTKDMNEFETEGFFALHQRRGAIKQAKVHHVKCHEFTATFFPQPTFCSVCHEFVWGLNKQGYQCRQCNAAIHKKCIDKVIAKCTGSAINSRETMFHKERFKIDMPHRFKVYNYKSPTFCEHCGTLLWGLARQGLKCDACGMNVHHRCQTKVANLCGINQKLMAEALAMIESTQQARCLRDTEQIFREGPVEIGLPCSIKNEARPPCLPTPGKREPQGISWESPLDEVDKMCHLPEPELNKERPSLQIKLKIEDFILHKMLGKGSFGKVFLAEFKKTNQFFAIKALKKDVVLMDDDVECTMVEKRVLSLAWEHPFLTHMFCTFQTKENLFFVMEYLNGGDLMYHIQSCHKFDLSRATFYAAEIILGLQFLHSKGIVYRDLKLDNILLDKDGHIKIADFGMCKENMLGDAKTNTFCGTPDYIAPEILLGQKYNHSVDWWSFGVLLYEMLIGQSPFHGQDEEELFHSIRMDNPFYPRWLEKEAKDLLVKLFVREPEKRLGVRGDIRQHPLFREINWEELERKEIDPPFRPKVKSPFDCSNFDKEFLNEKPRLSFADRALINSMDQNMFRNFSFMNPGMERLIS

For NC(COc1cncc(-c2ccc3c(c2)C(=Cc2ccc[nH]2)C(=O)N3)c1)Cc1ccccc1 (stereo not given), which Ki is on record?
The Ki was 0.00398 µM (active).

O=C1Cc2cc(-c3ccccc3)cnc2N1 was tested. Which Ki did it give?
The Ki was 63.1 µM (active).

How did the Ki turn out when O=C1Nc2cc(-c3ccc(O)cc3)ccc2C1=Cc1ccc[nH]1 was run?
The Ki was 0.316 µM (active).

Each compound was assayed against Death-associated protein kinase 3 (Homo sapiens, UniProt O43293).
Assay type: functional

Sequence of Death-associated protein kinase 3 (O43293 whole entry): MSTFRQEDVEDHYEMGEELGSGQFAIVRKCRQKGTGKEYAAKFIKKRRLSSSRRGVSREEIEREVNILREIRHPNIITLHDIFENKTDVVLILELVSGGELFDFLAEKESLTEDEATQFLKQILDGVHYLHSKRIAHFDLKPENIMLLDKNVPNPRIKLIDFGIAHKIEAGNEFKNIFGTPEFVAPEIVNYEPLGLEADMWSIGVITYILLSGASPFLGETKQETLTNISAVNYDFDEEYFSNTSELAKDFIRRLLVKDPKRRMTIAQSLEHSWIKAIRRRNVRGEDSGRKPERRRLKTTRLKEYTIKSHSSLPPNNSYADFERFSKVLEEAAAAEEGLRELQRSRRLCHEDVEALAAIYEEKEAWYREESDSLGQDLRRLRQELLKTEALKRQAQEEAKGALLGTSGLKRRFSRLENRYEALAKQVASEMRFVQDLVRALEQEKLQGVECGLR

Which Ki does the source give for NC(COc1cncc(-c2ccc3c(c2)C(=Cc2ccc[nH]2)C(=O)N3)c1)Cc1ccccc1 (stereo not given) here?
The Ki was 0.00501 µM (active).

How did the Ki turn out when O=C1Cc2cc(-c3ccccc3)cnc2N1 was run?
The Ki was 39.8 µM (active).

With O=C1Nc2cc(-c3ccc(O)cc3)ccc2C1=Cc1ccc[nH]1 as the compound, how does the Ki read?
The Ki was 0.00794 µM (active).
